# Tested on: A549 cells
# Assay: Cytoprotective action to stimulation by cigarette smoke extract (LDH assay)
# Assay type: cell-based, human
# Conditions: NAC 0.1 mM, FIG. 2
# Protocol: A549 cells were pre-incubated for 16 hours with addition of a test substance (0.01 U/mL) in a DMEM medium wherefrom thiol was removed. Incubation was conducted for 6 hours more after addition of a cigarette smoke extract […] and, after that, LDH in the supernatant liquid of the culture was measured by means of an LDH assay (Roche Diagnostics) and used as an index for viability of the cells. The cigarette smoke extract (CSE) was prepared using a cigarette smoke generator SG-200 (Shibata Kagaku). Thus, smoke of ten cigarettes (Kentucky Research Cigarette 2R4F) which was passed through 10 mL of DMEM wherefrom thiol was removed (10% HEPES was added thereto) was defined as 100% CSE and used after appropriately diluting to the concentrations which were suitable for the experiments.
smiles,measurement,value
"CC(=O)N[C@@H](CS)C(=O)O [NAC, N-acetylcysteine]","cell injury by CSE, effect of the extract compared with NAC",identical
